Laboratory results reported in PubChem BioAssay AID330 (DTP/NCI, 2004).
Values joined by “and” are separate entries in the source; they are usually repeats but may differ in a detail not shown here. Identical values can stand only once. Toxic doses and inconclusive results are not listed.

Test system: P388 leukemia ip, CD2F1 mice, survival T/C
Experiment: NCI In Vivo Anticancer Drug Screen. Data for tumor model P388 Leukemia (intraperitoneal) in CD2F1 (CDF1) mice
Conditions: endpoint: median survival time, higher = longer survival
Procedure, shortened: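 Mice carrying the transplanted tumor received test compound or vehicle. Survival was recorded in each group, and the value is the treated-group measurement divided by that of the vehicle-treated control group.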

[1] = dose: 50.0 mg/kg/injection, schedule: Q01DX009 (ip), vehicle: Klucel (hydroxypropylcellulose) (HPC)
[2] = dose: 200.0 mg/kg/injection, schedule: Q01DX009 (ip), vehicle: Klucel (hydroxypropylcellulose) (HPC)
[3] = dose: 60.0 mg/kg/injection, schedule: Q01DX005 (ip), vehicle: saline with Tween-80
[4] = dose: 120.0 mg/kg/injection, schedule: Q01DX005 (ip), vehicle: saline with Tween-80
[5] = dose: 50.0 mg/kg/injection, schedule: Q01DX009 (ip), vehicle: saline with Tween-80
[6] = dose: 100.0 mg/kg/injection, schedule: Q01DX009 (ip), vehicle: saline with Tween-80
[7] = dose: 200.0 mg/kg/injection, schedule: Q01DX009 (ip), vehicle: saline with Tween-80
[8] = dose: 50.0 mg/kg/injection, schedule: Q01DX005 (ip), vehicle: saline with Tween-80
[9] = dose: 100.0 mg/kg/injection, schedule: Q01DX005 (ip), vehicle: saline with Tween-80
[10] = dose: 200.0 mg/kg/injection, schedule: Q01DX005 (ip), vehicle: saline with Tween-80
[11] = dose: 50.0 mg/kg/injection, schedule: Q01DX005 (ip), vehicle: Klucel (hydroxypropylcellulose) (HPC)
[12] = dose: 100.0 mg/kg/injection, schedule: Q01DX005 (ip), vehicle: Klucel (hydroxypropylcellulose) (HPC)
[13] = dose: 200.0 mg/kg/injection, schedule: Q01DX005 (ip), vehicle: Klucel (hydroxypropylcellulose) (HPC)
[14] = dose: 240.0 mg/kg/injection, schedule: Q01DX005 (ip), vehicle: saline with Tween-80
[15] = dose: 6.25 mg/kg/injection, schedule: Q01DX005 (ip), vehicle: saline with Tween-80
[16] = dose: 12.5 mg/kg/injection, schedule: Q01DX005 (ip), vehicle: saline with Tween-80
[17] = dose: 25.0 mg/kg/injection, schedule: Q01DX005 (ip), vehicle: saline with Tween-80

Compound: CC(=O)Oc1cccc2c1C(=O)c1c(OC(C)=O)cccc1C2=O
- T/C (dose: 1.56 mg/kg/injection, schedule: Q04DX003 (ip), vehicle: Klucel (hydroxypropylcellulose) (HPC)): 99 % of control and 89 % of control
- T/C (dose: 3.12 mg/kg/injection, schedule: Q04DX003 (ip), vehicle: Klucel (hydroxypropylcellulose) (HPC)): 97 % of control
- T/C (dose: 3.13 mg/kg/injection, schedule: Q04DX003 (ip), vehicle: Klucel (hydroxypropylcellulose) (HPC)): 107 % of control
- T/C (dose: 6.25 mg/kg/injection, schedule: Q04DX003 (ip), vehicle: Klucel (hydroxypropylcellulose) (HPC)): 99 % of control and 97 % of control
- T/C (dose: 12.5 mg/kg/injection, schedule: Q04DX003 (ip), vehicle: Klucel (hydroxypropylcellulose) (HPC)): 99 % of control and 92 % of control
- T/C [1]: 87 % of control
- T/C [2]: 87 % of control
- T/C (dose: 400.0 mg/kg/injection, schedule: Q01DX009 (ip), vehicle: Klucel (hydroxypropylcellulose) (HPC)): 96 % of control

Compound: COc1ccc(OC(=O)/C=C/c2ccccc2)cc1
- T/C (dose: 85.0 mg/kg/injection, schedule: Q04DX002 (ip), vehicle: saline with Tween-80): 102 % of control

Compound: CCCCCCNC(=O)C1C(=O)N(CCCCCC)C(=O)/C1=N\N=C(N)N (stereo not drawn)
- T/C [3]: 109 % of control
- T/C [4]: 109 % of control

Compound: CCCCS[Si](SC(C)(C)C)(SC(C)(C)C)SC(C)(C)C
- T/C (dose: 100.0 mg/kg/injection, schedule: Q04DX002 (ip), vehicle: suspension in saline): 95 % of control
- T/C (dose: 200.0 mg/kg/injection, schedule: Q04DX002 (ip), vehicle: suspension in saline): 99 % of control
- T/C (dose: 400.0 mg/kg/injection, schedule: Q04DX002 (ip), vehicle: suspension in saline): 93 % of control

Compound: Cc1cc2c(cc1C)[n+](=O)c1c(n2[O-])CCC1
- T/C [3]: 100 % of control
- T/C [4]: 95 % of control

Compound: N#CC(=Nc1cccc(F)c1)C1=C(O)c2ccccc2C1=O
- T/C [3]: 100 % of control
- T/C [4]: 97 % of control

Compound: CC(C)(C)OC(=O)NC(CCCCNC(=O)C(F)(F)F)C(=O)ON1C(=O)CCC1=O (stereo not drawn)
- T/C [5]: 102 % of control
- T/C [6]: 99 % of control
- T/C [7]: 106 % of control

Compound: O=c1oc2c(Br)cccc2cc1-c1ccc(Br)c2ccccc12
- T/C [1]: 101 % of control
- T/C (dose: 100.0 mg/kg/injection, schedule: Q01DX009 (ip), vehicle: Klucel (hydroxypropylcellulose) (HPC)): 97 % of control
- T/C [2]: 93 % of control

Compound: COC(=O)C(CC(C)C)NC(=O)C(Cc1ccc(O)cc1)N(C(=O)OCc1ccccc1)C(=O)OCc1ccccc1 (stereo not drawn)
- T/C [8]: 103 % of control
- T/C [9]: 94 % of control
- T/C [10]: 92 % of control

Compound: O=P(c1ccccc1)(c1ccccc1)c1ccccc1OCCOCCOc1ccccc1P(=O)(c1ccccc1)c1ccccc1
- T/C [11]: 100 % of control
- T/C [12]: 91 % of control
- T/C [13]: 99 % of control

Compound: CCCCNCC(=O)Nc1cc(NC(=O)CNCCCC)c(C)c(NC(=O)CNCCCC)c1
- T/C [8]: 100 % of control
- T/C [9]: 104 % of control
- T/C [10]: 100 % of control

Compound: Nc1ccc2c(c1)CCCC2=O
- T/C [3]: 102 % of control
- T/C [4]: 93 % of control
- T/C [14]: 107 % of control

Compound: COc1ccc(-c2ccc(OC)c(OC)c2OC)c(N)c1
- T/C (dose: 100.0 mg/kg/injection, schedule: Q04DX003 (ip), vehicle: saline with Tween-80): 99 % of control and 110 % of control
- T/C (dose: 200.0 mg/kg/injection, schedule: Q04DX003 (ip), vehicle: saline with Tween-80): 104 % of control and 110 % of control
- T/C (dose: 400.0 mg/kg/injection, schedule: Q04DX003 (ip), vehicle: saline with Tween-80): 114 % of control and 115 % of control

Compound: CC1CCC(C(C)C)C(OC(=O)c2cc[n+](C)cc2)C1 (stereo not drawn)
- T/C [11]: 107 % of control
- T/C [12]: 98 % of control

Compound: CN(C)C1C(O)C2Oc3c(cc(O)c4c3C(=O)c3cc5c(c(O)c3C4=O)C(OCCN)CC(C)(O)C5)C(C)(O2)C1O (stereo not drawn)
- T/C (dose: 5.0 mg/kg/injection, schedule: Q01DX009 (ip), vehicle: other): 99 % of control
- T/C (dose: 10.0 mg/kg/injection, schedule: Q01DX009 (ip), vehicle: other): 101 % of control
- T/C (dose: 20.0 mg/kg/injection, schedule: Q01DX009 (ip), vehicle: other): 106 % of control
- T/C (dose: 40.0 mg/kg/injection, schedule: Q01DX009 (ip), vehicle: other): 117 % of control

Compound: CCC(=C(c1ccc(OCCN(C)C)cc1)c1cccc(O)c1)c1ccccc1 (mixture of isomers)
- T/C (dose: 60.0 mg/kg/injection, schedule: Q01DX005 (ip), vehicle: Klucel (hydroxypropylcellulose) (HPC)): 104 % of control
- T/C (dose: 120.0 mg/kg/injection, schedule: Q01DX005 (ip), vehicle: Klucel (hydroxypropylcellulose) (HPC)): 107 % of control

Compound: CCN(C(=S)NNC(=S)N/N=C(\C)c1ccccn1)c1ccccc1
- T/C [15]: 94 % of control
- T/C [16]: 107 % of control
- T/C [17]: 109 % of control
- T/C [8]: 112 % of control
- T/C [9]: 120 % of control

Compound: CCN(CC)CCN1CC(=O)N2Cc3ccccc3CN2C(=O)C1
- T/C [8]: 101 % of control
- T/C [9]: 104 % of control

Compound: COc1cccc(/C=C/C(C)=N/NC(N)=S)c1
- T/C [15]: 107 % of control
- T/C [16]: 107 % of control
- T/C [17]: 111 % of control
- T/C [8]: 118 % of control
- T/C [9]: 101 % of control

Compound: C=C1C(=O)C23C(O)C1CCC2C12CCCC(C)(C)C1C(O)C3(O)OC2 (stereo not drawn)
- T/C (dose: 2.5 mg/kg/injection, schedule: Q01DX005 (ip), vehicle: Klucel (hydroxypropylcellulose) (HPC)): 101 % of control
- T/C (dose: 5.0 mg/kg/injection, schedule: Q01DX005 (ip), vehicle: Klucel (hydroxypropylcellulose) (HPC)): 107 % of control
- T/C (dose: 10.0 mg/kg/injection, schedule: Q01DX005 (ip), vehicle: Klucel (hydroxypropylcellulose) (HPC)): 108 % of control

Compound: COc1ccc(CN2CC(C)(NC(=O)OCc3ccccc3)C2=O)c(OC)c1 (stereo not drawn)
- T/C [8]: 106 % of control
- T/C [9]: 98 % of control
- T/C [10]: 103 % of control

Compound: C=CCNc1nnc(-c2ccccc2)s1
- T/C [5]: 103 % of control
- T/C [6]: 100 % of control
- T/C [7]: 100 % of control

Compound: COc1ccc2c(c1)[C@H]1[C@H]([C@H]3O[C@@H]1c1ccccc13)S(=O)N2 (stereo partly drawn)
- T/C [11]: 95 % of control
- T/C [12]: 96 % of control
- T/C [13]: 92 % of control

Compound: CC(C(=O)NN)C(C)(C)C (stereo not drawn)
- T/C (dose: 100.0 mg/kg/injection, schedule: Q01DX001 (ip), vehicle: saline with Tween-80): 96 % of control
- T/C (dose: 200.0 mg/kg/injection, schedule: Q01DX001 (ip), vehicle: saline with Tween-80): 99 % of control
- T/C (dose: 400.0 mg/kg/injection, schedule: Q01DX001 (ip), vehicle: saline with Tween-80): 99 % of control

Compound: O=C1CSC(c2cc(F)ccc2F)N1c1nncs1 (stereo not drawn)
- T/C [3]: 107 % of control
- T/C [4]: 109 % of control
- T/C [14]: 104 % of control

Compound: O=CNc1ncc([N+](=O)[O-])s1
- T/C (dose: 12.5 mg/kg/injection, schedule: Q01DX009 (ip), vehicle: saline with Tween-80): 95 % of control
- T/C (dose: 25.0 mg/kg/injection, schedule: Q01DX009 (ip), vehicle: saline with Tween-80): 90 % of control
- T/C [5]: 100 % of control and 102 % of control

Compound: CCC(C)=C(C#N)NC(C)(C)C (mixture of isomers)
- T/C (dose: 50.0 mg/kg/injection, schedule: Q01DX009 (ip), vehicle: saline): 106 % of control
- T/C (dose: 100.0 mg/kg/injection, schedule: Q01DX009 (ip), vehicle: saline): 100 % of control
- T/C (dose: 200.0 mg/kg/injection, schedule: Q01DX009 (ip), vehicle: saline): 110 % of control

Compound: Cc1c(-c2ccccc2)nnn1-c1ccc(F)cc1F
- T/C [3]: 101 % of control
- T/C [4]: 99 % of control
- T/C [14]: 92 % of control

Compound: Cc1ccc(C)n1-c1ccsc1C(=O)NNC(=O)C(Cl)(Cl)Cl
- T/C (dose: 7.5 mg/kg/injection, schedule: Q01DX005 (ip), vehicle: Klucel (hydroxypropylcellulose) (HPC)): 102 % of control
- T/C (dose: 15.0 mg/kg/injection, schedule: Q01DX005 (ip), vehicle: Klucel (hydroxypropylcellulose) (HPC)): 101 % of control
- T/C (dose: 30.0 mg/kg/injection, schedule: Q01DX005 (ip), vehicle: Klucel (hydroxypropylcellulose) (HPC)): 111 % of control

Compound: CNC(=O)OCc1c(-c2ccccc2)c(-c2ccccc2)n(-c2ccccc2)c1COC(=O)NC
- T/C (dose: 12.5 mg/kg/injection, schedule: Q01DX009 (ip), vehicle: distilled water + Tween-80): 110 % of control
- T/C (dose: 25.0 mg/kg/injection, schedule: Q01DX009 (ip), vehicle: distilled water + Tween-80): 112 % of control and 117 % of control
- T/C (dose: 100.0 mg/kg/injection, schedule: Q01DX009 (ip), vehicle: distilled water + Tween-80): 155 % of control
- T/C (dose: 200.0 mg/kg/injection, schedule: Q01DX009 (ip), vehicle: distilled water + Tween-80): 171 % of control and 175 % of control
